In patent US20150105252A1, “SUBSTITUTED PYRAZOLES AS HERBICIDES” (E I DU PONT DE NEMOURS AND COMPANY, priority 2013, published 2015):

Assays:
[1] = tested on: ryegrass, Italian; test: Test C preemergence; type: in vivo, Lolium multiflorum
How it was run: (§1)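 Postemergence values come from plants sprayed at the 1- to 4-leaf stage (2–18 cm) in peat moss–vermiculite medium; preemergence values from seeds treated in a loam–sand blend. Both evaluated visually against controls after 13–15 greenhouse days, scale 0–100.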

[2] = tested on: nutsedge, yellow; test: Test C preemergence; type: in vivo, Cyperus esculentus
How it was run: as §1

[3] = tested on: morningglory; test: Test A postemergence; type: in vivo, Ipomoea spp.
How it was run: (§2)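 Visual injury ratings, 0 = no effect to 100 = complete control, taken about 10 days after treatment against untreated controls. Test chemicals, in a non-phytotoxic surfactant-containing solvent, were sprayed onto soil preemergence or onto one- to two-leaf plants (2–10 cm) postemergence, in loam–sand soil under greenhouse conditions.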

[4] = tested on: crabgrass, large; test: Test A preemergence; type: in vivo, Digitaria sanguinalis; conditions: preemergence
How it was run: as §2

[5] = tested on: galium; test: Test C postemergence; type: in vivo, Galium aparine; conditions: for Plant response rating (scale of 0 to 100 where 0 is no effect and 100 is complete control), Galium: Postemergence, 31 g ai/ha, visually evaluated after 13 to 15 days; for Galium plant response rating / Plant response rating, Galium: postemergence; for Galium plant response rating: 62 g ai/ha, scale 0 to 100
How it was run: as §1

[6] = tested on: waterhemp; test: Test C preemergence; type: in vivo, Amaranthus rudis
How it was run: as §1

[7] = tested on: galium; test: Test C preemergence; type: in vivo, Galium aparine
How it was run: as §1

[8] = tested on: corn; test: Test C preemergence; type: in vivo, Zea mays
How it was run: as §1

[9] = tested on: corn; test: Test A postemergence; type: in vivo, Zea mays
How it was run: as §2

[10] = tested on: crabgrass, large; test: Test A postemergence; type: in vivo, Digitaria sanguinalis
How it was run: as §2

[11] = tested on: barnyardgrass; test: Test C postemergence; type: in vivo, Echinochloa crus-galli; conditions: for Plant response rating (scale of 0 to 100 where 0 is no effect and 100 is complete control), Barnyardgrass: Postemergence, 31 g ai/ha, visually evaluated after 13 to 15 days; for Barnyardgrass plant response rating / Plant response rating, Barnyardgrass: postemergence; for Barnyardgrass plant response rating: 62 g ai/ha, scale 0 to 100
How it was run: as §1

[12] = tested on: foxtail, giant; test: Test A postemergence; type: in vivo, Setaria faberii
How it was run: as §2

[13] = tested on: foxtail, giant; test: Test C postemergence; type: in vivo, Setaria faberii; conditions: for Plant response rating (scale of 0 to 100 where 0 is no effect and 100 is complete control), Foxtail, Giant: Postemergence, 31 g ai/ha, visually evaluated after 13 to 15 days; for Foxtail, Giant plant response rating / Plant response rating, Foxtail, Giant: postemergence; for Foxtail, Giant plant response rating: 62 g ai/ha, scale 0 to 100
How it was run: as §1

[14] = tested on: morningglory; test: Test C postemergence; type: in vivo, Ipomoea coccinea; conditions: for Plant response rating (scale of 0 to 100 where 0 is no effect and 100 is complete control), Morningglory: Postemergence, 31 g ai/ha, visually evaluated after 13 to 15 days; for Morningglory plant response rating / Plant response rating, Morningglory: postemergence; for Morningglory plant response rating: 62 g ai/ha, scale 0 to 100
How it was run: as §1

[15] = tested on: wheat; test: Test A preemergence; type: in vivo, Triticum aestivum; conditions: preemergence
How it was run: as §2

[16] = tested on: blackgrass; test: Test C postemergence; type: in vivo, Alopecurus myosuroides; conditions: for Plant response rating (scale of 0 to 100 where 0 is no effect and 100 is complete control), Blackgrass: Postemergence, 31 g ai/ha, visually evaluated after 13 to 15 days; for Blackgrass plant response rating / Plant response rating, Blackgrass: postemergence; for Blackgrass plant response rating: 62 g ai/ha, scale 0 to 100
How it was run: as §1

[17] = preemergence, 31 g ai/ha, visual rating, scale 0 to 100 (0 no effect, 100 complete control), 13 to 15 days
[18] = preemergence, 62 g ai/ha, scale 0 to 100 (0 no effect, 100 complete control), 13 to 15 days
[19] = preemergence, 125 g ai/ha, scale 0 to 100, 0 is no effect, 100 is complete control
[20] = Postemergence, 500 g ai/ha, visual rating after approx. 10 days, 0 to 100 scale (0 no effect, 100 complete control)
[21] = postemergence, 125 g ai/ha, about 10 days, visual rating on 0 to 100 scale (0 no effect, 100 complete control)
[22] = 125 g ai/ha, visual injury, 0 to 100 scale, approx. 10 days
[23] = 500 g ai/ha, visual injury after approx. 10 days, 0 to 100 scale (0 no effect, 100 complete control)
[24] = 250 g ai/ha, scale 0 to 100 (0 no effect, 100 complete control)
[25] = 125 g ai/ha, scale 0 to 100, 0 no effect, 100 complete control
[26] = preemergence, 125 g ai/ha, 13 to 15 days, scale 0 to 100, 0 = no effect, 100 = complete control
[27] = preemergence, 250 g ai/ha, scale 0 to 100, 0 is no effect, 100 is complete control
[28] = Postemergence, 500 g ai/ha, 0 to 100 scale (0 no effect, 100 complete control)
[29] = 125 g ai/ha, visual injury approx. 10 days after treatment

With `CCc1cc(C(=O)NCC(F)(F)F)nn1Cc1cc(C(F)(F)F)nn1C` [Compound 108, 5-ethyl-1-[[1-methyl-3-(trifluoromethyl)-1H-pyrazole-5-yl]methyl]-N-(2,2,2-trifluoroethyl)-1H-pyrazole-3-carboxamide] the “Plant response rating (scale of 0 to 100), Ryegrass, Italian” value ([1]; Preemergence, 250 g ai/ha) was 100, the “Ryegrass, Italian plant response rating” value [1, 17] was 30 and the “Ryegrass, Italian plant response rating” value [1, 18] was 60. The “Ryegrass, Italian plant response rating” value [1, 19] was 90, the “Plant response rating (scale of 0 to 100), Nutsedge, Yellow” value ([2]; Preemergence, 250 g ai/ha) was 85 and the “Nutsedge, Yellow plant response rating” value [2, 17] was 5. The “Nutsedge, Yellow plant response rating” value [2, 18] was 40, the “Morningglory plant response rating” value [3, 20] was 100 and the “Morningglory plant response rating” value [3, 21] was 90. The “Crabgrass, Large plant response rating” value [4, 22] was 100, the “Crabgrass, Large plant response rating” value [4, 23] was 100 and the “Plant response rating (scale of 0 to 100 where 0 is no effect and 100 is complete control), Galium” value [5] was 60. The “Galium plant response rating” value [5] was 60, the “Plant response rating, Galium” value [5, 24] was 90 and the “Plant response rating, Galium” value [5, 25] was 80. The “Plant response rating (scale of 0 to 100), Waterhemp” value ([6]; Preemergence, 250 g ai/ha) was 100, the “Waterhemp plant response rating” value [6, 17] was 98 and the “Waterhemp plant response rating” value [6, 18] was 100. For the same molecule, the “Waterhemp plant response rating” value [6, 19] was 100, the “Plant response rating (scale of 0 to 100), Galium” value ([7]; Preemergence, 250 g ai/ha) was 100 and the “Galium plant response rating” value [7, 17] was 85. For the same molecule, the “Galium plant response rating” value [7, 18] was 100, the “Galium plant response rating” value [7, 19] was 100 and the “Plant response rating (scale of 0 to 100), Corn” value ([8]; Preemergence, 250 g ai/ha) was 95. The “Corn plant response rating” value [8, 17] was 5, the “Corn plant response rating” value [8, 18] was 30 and the “Corn plant response rating” value [8, 19] was 95. The “Corn plant response rating” value [9, 20] was 100, the “Corn plant response rating” value [9, 21] was 80 and the “Crabgrass, Large plant response rating” value [10, 20] was 100. The “Crabgrass, Large plant response rating” value [10, 21] was 90, the “Plant response rating (scale of 0 to 100 where 0 is no effect and 100 is complete control), Barnyardgrass” value [11] was 0 and the “Barnyardgrass plant response rating” value [11] was 0. The “Plant response rating, Barnyardgrass” value [11, 24] was 35, the “Plant response rating, Barnyardgrass” value [11, 25] was 5 and the “Foxtail, Giant plant response rating” value [12, 20] was 100. The “Foxtail, Giant plant response rating” value [12, 21] was 90, the “Plant response rating (scale of 0 to 100 where 0 is no effect and 100 is complete control), Foxtail, Giant” value [13] was 10 and the “Foxtail, Giant plant response rating” value [13] was 30. For the same molecule, the “Plant response rating, Foxtail, Giant” value [13, 24] was 45, the “Plant response rating, Foxtail, Giant” value [13, 25] was 40 and the “Plant response rating (scale of 0 to 100 where 0 is no effect and 100 is complete control), Morningglory” value [14] was 50. For the same molecule, the “Morningglory plant response rating” value [14] was 50, the “Plant response rating, Morningglory” value [14, 24] was 90 and the “Plant response rating, Morningglory” value [14, 25] was 80. The “Wheat plant response rating” value [15, 22] was 10, the “Wheat plant response rating” value [15, 23] was 100 and the “Plant response rating (scale of 0 to 100 where 0 is no effect and 100 is complete control), Blackgrass” value [16] was 0. For the same molecule, the “Blackgrass plant response rating” value [16] was 5, the “Plant response rating, Blackgrass” value [16, 24] was 30 and the “Plant response rating, Blackgrass” value [16, 25] was 5.
`CCCc1cc(C(=O)NC(C)C)nn1Cc1cc(C(F)(F)F)nn1C` [Compound 201] was tested, and the “Ryegrass, Italian plant response rating” value [1, 17] was 65, the “Ryegrass, Italian plant response rating” value [1, 18] was 90 and the “Plant response rating, Ryegrass, Italian” value [1, 26] was 90. For the same molecule, the “Ryegrass, Italian plant response rating” value [1, 27] was 90, the “Nutsedge, Yellow plant response rating” value [2, 17] was 5 and the “Nutsedge, Yellow plant response rating” value [2, 18] was 20. For the same molecule, the “Plant response rating, Nutsedge, Yellow” value [2, 26] was 55, the “Nutsedge, Yellow plant response rating” value [2, 27] was 80 and the “Morningglory plant response rating” value ([3]; Postemergence, 125 g ai/ha, 0 to 100 scale, 0 no effect, 100 complete control) was 90. For the same molecule, the “Morningglory plant response rating” value [3, 28] was 100, the “Crabgrass, Large plant response rating (0 to 100 scale)” value [4, 29] was 100 and the “Crabgrass, Large plant response rating” value [4, 23] was 100. The “Plant response rating (scale of 0 to 100 where 0 is no effect and 100 is complete control), Galium” value [5] was 60, the “Galium plant response rating” value [5] was 80 and the “Plant response rating, Galium” value [5, 24] was 95. The “Plant response rating, Galium” value [5, 25] was 60, the “Waterhemp plant response rating” value [6, 17] was 100 and the “Waterhemp plant response rating” value [6, 18] was 100. For the same molecule, the “Plant response rating, Waterhemp” value [6, 26] was 98, the “Waterhemp plant response rating” value [6, 27] was 98 and the “Galium plant response rating” value [7, 17] was 95. For the same molecule, the “Galium plant response rating” value [7, 18] was 95, the “Plant response rating, Galium” value [7, 26] was 98 and the “Galium plant response rating” value [7, 27] was 100. For the same molecule, the “Corn plant response rating” value [8, 17] was 40, the “Corn plant response rating” value [8, 18] was 60 and the “Plant response rating, Corn” value [8, 26] was 70. The “Corn plant response rating” value [8, 27] was 95, the “Corn plant response rating” value [9, 28] was 100 and the “Corn plant response rating” value [9, 21] was 90. The “Crabgrass, Large plant response rating” value [10, 28] was 100, the “Crabgrass, Large plant response rating” value [10, 21] was 90 and the “Plant response rating (scale of 0 to 100 where 0 is no effect and 100 is complete control), Barnyardgrass” value [11] was 5. For the same molecule, the “Barnyardgrass plant response rating” value [11] was 10, the “Plant response rating, Barnyardgrass” value [11, 24] was 60 and the “Plant response rating, Barnyardgrass” value [11, 25] was 35. The “Foxtail, Giant plant response rating” value [12, 28] was 100, the “Foxtail, Giant plant response rating” value [12, 21] was 90 and the “Plant response rating (scale of 0 to 100 where 0 is no effect and 100 is complete control), Foxtail, Giant” value [13] was 10. The “Foxtail, Giant plant response rating” value [13] was 10, the “Plant response rating, Foxtail, Giant” value [13, 24] was 85 and the “Plant response rating, Foxtail, Giant” value [13, 25] was 30. For the same molecule, the “Plant response rating (scale of 0 to 100 where 0 is no effect and 100 is complete control), Morningglory” value [14] was 80, the “Morningglory plant response rating” value [14] was 95 and the “Plant response rating, Morningglory” value [14, 24] was 98. The “Plant response rating, Morningglory” value [14, 25] was 85, the “Wheat plant response rating (0 to 100 scale)” value [15, 29] was 80 and the “Wheat plant response rating” value [15, 23] was 100. For the same molecule, the “Plant response rating (scale of 0 to 100 where 0 is no effect and 100 is complete control), Blackgrass” value [16] was 20, the “Blackgrass plant response rating” value [16] was 5 and the “Plant response rating, Blackgrass” value [16, 24] was 60. For the same molecule, the “Plant response rating, Blackgrass” value [16, 25] was 15.
